Assay results taken from ChEMBL document CHEMBL1128761, “Benzothiazolylthio carbapenems: potent anti-MRSA agents” (Bioorg Med Chem Lett, 1995).
In brackets after ≈: the same amount, converted by molar mass.

These molecules were tested against T1, Dipeptidase 1 (Sus scrofa) (UniProt P22412) (assay: (§1) Susceptibility to DHP-I (swine kidney enzyme)). Settings: not given.
T1 sequence (whole entry): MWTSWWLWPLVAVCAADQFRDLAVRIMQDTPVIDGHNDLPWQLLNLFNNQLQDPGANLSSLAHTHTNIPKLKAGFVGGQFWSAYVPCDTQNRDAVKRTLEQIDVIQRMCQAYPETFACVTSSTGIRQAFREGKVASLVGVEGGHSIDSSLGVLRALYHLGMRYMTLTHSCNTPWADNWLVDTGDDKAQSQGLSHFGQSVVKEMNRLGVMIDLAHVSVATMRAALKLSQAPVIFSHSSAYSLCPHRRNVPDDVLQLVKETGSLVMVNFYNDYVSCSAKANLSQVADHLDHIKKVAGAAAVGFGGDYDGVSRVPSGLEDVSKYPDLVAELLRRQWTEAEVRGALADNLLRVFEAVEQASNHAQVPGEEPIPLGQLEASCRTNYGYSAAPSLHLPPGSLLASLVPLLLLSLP
Format: tissue-based

| SMILES | Susceptibility |
| --- | --- |
| C[C@@H](O)[C@H]1C(=O)N2C(C(=O)[O-])=C(Sc3nc4ccc(C#N)cc4s3)[C@H](C)[C@H]12.[Na+] | 0.1 |
| CCOc1ccc2nc(SC3=C(C(=O)[O-])N4C(=O)[C@H]([C@@H](C)O)[C@H]4[C@H]3C)sc2c1.[Na+] | 0.3 |
| C[C@@H](O)[C@H]1C(=O)N2C(C(=O)[O-])=C(Sc3cc4ccccc4s3)[C@H](C)[C@H]12.[Na+] | 0.4 |

Species on record: Sus scrofa
Assay: as §1
Format: tissue-based
Settings: not given

| SMILES | Susceptibility |
| --- | --- |
| C[C@@H](O)[C@H]1C(=O)N2C(C(=O)[O-])=C(Sc3nc4c(C[n+]5ccn(C)c5)csc4s3)C[C@H]12 | 0.2 |
| C[C@@H](O)[C@H]1C(=O)N2C(C(=O)[O-])=C(Sc3nc4cc(C[n+]5ccn(C)c5)ccc4s3)C[C@H]12 | 0.2 |
| C[C@@H](O)[C@H]1C(=O)N2C(C(=O)O)=C(SCCNC=N)C[C@H]12 [IMIPENEM ANHYDROUS] | 1 |

Each molecule was assayed on Enterococcus (assay: Inhibitory activity against enterococcus evaluated by computational method). Settings: not given.
Format: functional

| SMILES | MIC [µg/mL] |
| --- | --- |
| C[C@@H](O)[C@H]1C(=O)N2C(C(=O)[O-])=C(Sc3nc4c(C[n+]5ccn(C)c5)csc4s3)C[C@H]12 | 2 (≈ 4.32 µM) |
| C[C@@H](O)[C@H]1C(=O)N2C(C(=O)[O-])=C(Sc3nc4cc(C[n+]5ccn(C)c5)ccc4s3)C[C@H]12 | 1.2 (≈ 2.63 µM) |
| C[C@@H](O)[C@H]1C(=O)N2C(C(=O)O)=C(SCCNC=N)C[C@H]12 [IMIPENEM ANHYDROUS] | 1.1 (≈ 3.67 µM) |
| C[C@@H](O)[C@H]1C(=O)N2C(C(=O)[O-])=C(Sc3nc4ccc(C#N)cc4s3)[C@H](C)[C@H]12.[Na+] | 4.5 |
| CCOc1ccc2nc(SC3=C(C(=O)[O-])N4C(=O)[C@H]([C@@H](C)O)[C@H]4[C@H]3C)sc2c1.[Na+] | 6 |
| C[C@@H](O)[C@H]1C(=O)N2C(C(=O)[O-])=C(Sc3cc4ccccc4s3)[C@H](C)[C@H]12.[Na+] | 5.7 |

Each molecule was assayed on Enterococcus (assay: Inhibitory activity against enterococcus evaluated manually). Settings: not given.
Format: functional

| SMILES | MIC [µg/mL] |
| --- | --- |
| C[C@@H](O)[C@H]1C(=O)N2C(C(=O)[O-])=C(Sc3nc4cc(C[n+]5ccn(C)c5)ccc4s3)C[C@H]12 | 1 (≈ 2.19 µM) |
| C[C@@H](O)[C@H]1C(=O)N2C(C(=O)O)=C(SCCNC=N)C[C@H]12 [IMIPENEM ANHYDROUS] | 1.3 (≈ 4.34 µM) |

Each molecule was assayed on Bacteria (assay: Inhibitory activity against gram negative bacteria evaluated manually). Settings: not given.
Format: functional

| SMILES | MIC [µg/mL] |
| --- | --- |
| C[C@@H](O)[C@H]1C(=O)N2C(C(=O)[O-])=C(Sc3nc4cc(C[n+]5ccn(C)c5)ccc4s3)C[C@H]12 | 5.2 (≈ 11.4 µM) |
| C[C@@H](O)[C@H]1C(=O)N2C(C(=O)O)=C(SCCNC=N)C[C@H]12 [IMIPENEM ANHYDROUS] | 0.4 (≈ 1.34 µM) |

These molecules were tested on Bacteria (assay: The gram-negative activity is derived from eleven strains selected from seven enteric genera). Settings: Bacteria; read-out: MIC.
Format: functional

| SMILES | MIC [µg/mL] |
| --- | --- |
| C[C@@H](O)[C@H]1C(=O)N2C(C(=O)[O-])=C(Sc3nc4c(C[n+]5ccn(C)c5)csc4s3)C[C@H]12 | 5.5 (≈ 11.9 µM) |
| C[C@@H](O)[C@H]1C(=O)N2C(C(=O)[O-])=C(Sc3nc4cc(C[n+]5ccn(C)c5)ccc4s3)C[C@H]12 | 3.4 (≈ 7.45 µM) |
| C[C@@H](O)[C@H]1C(=O)N2C(C(=O)O)=C(SCCNC=N)C[C@H]12 [IMIPENEM ANHYDROUS] | 0.6 (≈ 2 µM) |
| C[C@@H](O)[C@H]1C(=O)N2C(C(=O)[O-])=C(Sc3nc4ccc(C#N)cc4s3)[C@H](C)[C@H]12.[Na+] | 8.8 |
| CCOc1ccc2nc(SC3=C(C(=O)[O-])N4C(=O)[C@H]([C@@H](C)O)[C@H]4[C@H]3C)sc2c1.[Na+] | 31.6 |
| C[C@@H](O)[C@H]1C(=O)N2C(C(=O)[O-])=C(Sc3cc4ccccc4s3)[C@H](C)[C@H]12.[Na+] | 9.8 |

These molecules were tested against T2, MecA (Staphylococcus aureus, UniProt Q7DHH4) (assay: Binding affinity towards Penicillin-binding protein 2a from homogeneous MRSA COL strain using [3H]-radioligand). Settings: not given.
T2 sequence (Q7DHH4 whole entry): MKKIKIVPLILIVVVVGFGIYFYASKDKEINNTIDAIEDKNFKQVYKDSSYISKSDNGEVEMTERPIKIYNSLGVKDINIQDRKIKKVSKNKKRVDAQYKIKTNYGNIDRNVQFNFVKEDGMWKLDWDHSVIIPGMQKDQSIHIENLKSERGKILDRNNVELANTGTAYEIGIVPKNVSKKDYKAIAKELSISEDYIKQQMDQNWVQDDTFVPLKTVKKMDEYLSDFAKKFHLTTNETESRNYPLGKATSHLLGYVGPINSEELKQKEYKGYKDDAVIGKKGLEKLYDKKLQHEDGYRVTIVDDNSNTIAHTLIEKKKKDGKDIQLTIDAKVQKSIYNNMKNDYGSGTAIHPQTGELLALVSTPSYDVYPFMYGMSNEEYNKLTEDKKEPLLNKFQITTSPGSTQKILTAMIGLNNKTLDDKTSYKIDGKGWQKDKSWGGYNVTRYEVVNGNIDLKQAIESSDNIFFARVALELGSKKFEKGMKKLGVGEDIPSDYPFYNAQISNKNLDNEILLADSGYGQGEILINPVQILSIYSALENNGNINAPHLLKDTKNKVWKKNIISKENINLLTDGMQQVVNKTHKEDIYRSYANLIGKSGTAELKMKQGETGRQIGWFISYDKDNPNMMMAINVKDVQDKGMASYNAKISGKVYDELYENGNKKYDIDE

| SMILES | IC50 [µM] |
| --- | --- |
| C[C@@H](O)[C@H]1C(=O)N2C(C(=O)[O-])=C(Sc3nc4c(C[n+]5ccn(C)c5)csc4s3)C[C@H]12 | 0.649 |
| C[C@@H](O)[C@H]1C(=O)N2C(C(=O)[O-])=C(Sc3nc4cc(C[n+]5ccn(C)c5)ccc4s3)C[C@H]12 | 0.876 |
| C[C@@H](O)[C@H]1C(=O)N2C(C(=O)[O-])=C(Sc3nc4ccc(C#N)cc4s3)[C@H](C)[C@H]12.[Na+] | 3.78 |
| CCOc1ccc2nc(SC3=C(C(=O)[O-])N4C(=O)[C@H]([C@@H](C)O)[C@H]4[C@H]3C)sc2c1.[Na+] | 10.6 |
| C[C@@H](O)[C@H]1C(=O)N2C(C(=O)[O-])=C(Sc3cc4ccccc4s3)[C@H](C)[C@H]12.[Na+] | 41.5 |

The molecules below were run on Staphylococcus (assay: Inhibitory activity against methicillin-resistant coagulase negative staphylococci (MRCNS) evaluated by computational method). Settings: not given.
Format: functional

| SMILES | MIC [µg/mL] |
| --- | --- |
| C[C@@H](O)[C@H]1C(=O)N2C(C(=O)[O-])=C(Sc3nc4cc(C[n+]5ccn(C)c5)ccc4s3)C[C@H]12 | 0.8 (≈ 1.75 µM) |
| C[C@@H](O)[C@H]1C(=O)N2C(C(=O)O)=C(SCCNC=N)C[C@H]12 [IMIPENEM ANHYDROUS] | 63.7 (≈ 213 µM) |

The molecules below were run on Staphylococcus sp. (assay: (§2) Inhibitory activity against methicillin-resistant coagulase negative staphylococci (MRCNS) evaluated manually). Settings: not given.
Format: functional

| SMILES | MIC [µg/mL] |
| --- | --- |
| C[C@@H](O)[C@H]1C(=O)N2C(C(=O)[O-])=C(Sc3nc4cc(C[n+]5ccn(C)c5)ccc4s3)C[C@H]12 | 4 (≈ 8.76 µM) |

What follows are molecules tested on Staphylococcus (assay: as §2). Settings: not given.
Format: functional

| SMILES | MIC [µg/mL] |
| --- | --- |
| C[C@@H](O)[C@H]1C(=O)N2C(C(=O)O)=C(SCCNC=N)C[C@H]12 [IMIPENEM ANHYDROUS] | > 64 |

What follows are molecules tested on Staphylococcus aureus (assay: Inhibitory activity against methicillin-sensitive staphylococcus aureus(MSSA)). Settings: not given.
Format: functional

| SMILES | MIC [µg/mL] |
| --- | --- |
| C[C@@H](O)[C@H]1C(=O)N2C(C(=O)[O-])=C(Sc3nc4c(C[n+]5ccn(C)c5)csc4s3)C[C@H]12 | 0.02 (≈ 0.0432 µM) |
| C[C@@H](O)[C@H]1C(=O)N2C(C(=O)[O-])=C(Sc3nc4ccc(C#N)cc4s3)[C@H](C)[C@H]12.[Na+] | 0.04 |
| CCOc1ccc2nc(SC3=C(C(=O)[O-])N4C(=O)[C@H]([C@@H](C)O)[C@H]4[C@H]3C)sc2c1.[Na+] | 0.1 |
| C[C@@H](O)[C@H]1C(=O)N2C(C(=O)[O-])=C(Sc3cc4ccccc4s3)[C@H](C)[C@H]12.[Na+] | 0.04 |

What follows are molecules tested on Staphylococcus aureus (assay: Inhibitory activity against methicillin-sensitive staphylococcus aureus(MSSA) evaluated by computational method). Settings: not given.
Format: functional

| SMILES | MIC [µg/mL] |
| --- | --- |
| C[C@@H](O)[C@H]1C(=O)N2C(C(=O)[O-])=C(Sc3nc4cc(C[n+]5ccn(C)c5)ccc4s3)C[C@H]12 | 0.03 (≈ 0.0657 µM) |
| C[C@@H](O)[C@H]1C(=O)N2C(C(=O)O)=C(SCCNC=N)C[C@H]12 [IMIPENEM ANHYDROUS] | 0.02 (≈ 0.0668 µM) |

The molecules below were run on Staphylococcus aureus (assay: Inhibitory activity against methicillin-sensitive staphylococcus aureus(MSSA) evaluated manually). Settings: not given.
Format: functional

| SMILES | MIC [µg/mL] |
| --- | --- |
| C[C@@H](O)[C@H]1C(=O)N2C(C(=O)[O-])=C(Sc3nc4cc(C[n+]5ccn(C)c5)ccc4s3)C[C@H]12 | 0.02 (≈ 0.0438 µM) |
| C[C@@H](O)[C@H]1C(=O)N2C(C(=O)O)=C(SCCNC=N)C[C@H]12 [IMIPENEM ANHYDROUS] | 0.02 (≈ 0.0668 µM) |

These molecules were tested on Staphylococcus aureus (assay: Inhibitory activity against methicillin-resistant staphylococcus aureus(MRSA)). Settings: not given.
Format: functional

| SMILES | MIC [µg/mL] |
| --- | --- |
| C[C@@H](O)[C@H]1C(=O)N2C(C(=O)[O-])=C(Sc3nc4c(C[n+]5ccn(C)c5)csc4s3)C[C@H]12 | 1 (≈ 2.16 µM) |
| C[C@@H](O)[C@H]1C(=O)N2C(C(=O)[O-])=C(Sc3nc4ccc(C#N)cc4s3)[C@H](C)[C@H]12.[Na+] | 0.9 |
| CCOc1ccc2nc(SC3=C(C(=O)[O-])N4C(=O)[C@H]([C@@H](C)O)[C@H]4[C@H]3C)sc2c1.[Na+] | 4 |
| C[C@@H](O)[C@H]1C(=O)N2C(C(=O)[O-])=C(Sc3cc4ccccc4s3)[C@H](C)[C@H]12.[Na+] | 3.9 |

What follows are molecules tested on Staphylococcus aureus (assay: Inhibitory activity against methicillin-resistant staphylococcus aureus(MRSA) evaluated manually). Settings: not given.
Format: functional

| SMILES | MIC [µg/mL] |
| --- | --- |
| C[C@@H](O)[C@H]1C(=O)N2C(C(=O)[O-])=C(Sc3nc4cc(C[n+]5ccn(C)c5)ccc4s3)C[C@H]12 | 2 (≈ 4.38 µM) |
| C[C@@H](O)[C@H]1C(=O)N2C(C(=O)O)=C(SCCNC=N)C[C@H]12 [IMIPENEM ANHYDROUS] | 64 (≈ 214 µM) |

What follows are molecules tested on Staphylococcus aureus (assay: Inhibitory activity against methicillin-resistant staphylococcus aureus(MRSA) evaluated by computational method). Settings: not given.
Format: functional

| SMILES | MIC [µg/mL] |
| --- | --- |
| C[C@@H](O)[C@H]1C(=O)N2C(C(=O)[O-])=C(Sc3nc4cc(C[n+]5ccn(C)c5)ccc4s3)C[C@H]12 | 1 (≈ 2.19 µM) |
| C[C@@H](O)[C@H]1C(=O)N2C(C(=O)O)=C(SCCNC=N)C[C@H]12 [IMIPENEM ANHYDROUS] | 35.9 (≈ 120 µM) |
